Measured values from patent US11938122B2, “5-[[4-[2-[5-(1-hydroxyethyl)pyridin-2-yl]ethoxy]phenyl]methyl]-1,3- thiazolidine-2,4-dione for treating nonalcoholic fatty liver disease” (Minoryx Therapeutics S.L., priority 2016, dated 2024).
Read-outs that look alike come from different tables or passages of the source.

Key:
[1] = test system: diabetic preclinical models; details: compared with pioglitazone, literature; cited from earlier work
[2] = target: T1, 2C8 (Homo sapiens, UniProt P10632); details: Sahi et al.; cited from earlier work
T1 sequence (P10632 1-490): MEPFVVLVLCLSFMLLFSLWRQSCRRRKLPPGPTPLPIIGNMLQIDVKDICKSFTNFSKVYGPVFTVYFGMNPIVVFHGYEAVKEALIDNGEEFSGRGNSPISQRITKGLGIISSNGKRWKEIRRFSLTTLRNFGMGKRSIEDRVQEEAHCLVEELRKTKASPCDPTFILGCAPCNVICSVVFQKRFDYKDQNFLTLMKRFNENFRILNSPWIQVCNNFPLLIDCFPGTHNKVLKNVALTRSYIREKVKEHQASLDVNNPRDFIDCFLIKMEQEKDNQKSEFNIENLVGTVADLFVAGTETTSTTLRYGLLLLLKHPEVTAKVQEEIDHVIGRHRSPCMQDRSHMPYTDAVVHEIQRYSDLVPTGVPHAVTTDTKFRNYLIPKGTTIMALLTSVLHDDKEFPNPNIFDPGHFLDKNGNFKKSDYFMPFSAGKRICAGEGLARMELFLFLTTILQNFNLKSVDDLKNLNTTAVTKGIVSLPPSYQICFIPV

[3] = cited from earlier work; for AUC0-∞ mean: healthy subjects, single oral dose 45 mg
[4] = test system: CYP3A4; experiment: CYP induction in cryopreserved human hepatocytes; type: in vitro ADME; details: 10 μM, similar assay
[5] = test system: bladder urothelium; experiment: Bladder epithelium hyperplasia in rat tissue; type: in vivo; details: treated rats; pioglitazone 14.5 and 145 mg/Kg/day, MIN-102 25, 100 and 150 mg/Kg/day
[6] = test system: CYP2B6; experiment: CYP induction in cryopreserved human hepatocytes; type: in vitro ADME; details: 50 μM, similar assay
[7] = Eckland et al., Christensen et al.

Row | Compound | pharmacological activity [1] | IC50 [2] | Ki [2] | range in exposure (AUC) [3, 7] | variability (CV %) in clearance [3, 7] | AUC0-∞ mean ([3]; study a) | AUC0-∞ mean ([3]; study b) | AUC0-∞ mean ([3]; study c) | induction in CYP3A4 [4] | bladder epithelium hyperplasia [5] | induction in CYPB6 [6]
1 | CC(O)c1ccc(CCOc2ccc(CC3SC(=O)NC3=O)cc2)nc1 (stereo not drawn) [(1), 5-[[4-[2-[5-(1-hydroxyethyl)pyridin-2-yl]ethoxy]phenyl]methyl]-1,3-thiazolidine-2,4-dione] | less active than pioglitazone |  |  |  |  |  |  |  |  |  | 
2 | CC(=O)c1ccc(CCOc2ccc(CC3SC(=O)NC3=O)cc2)nc1 (stereo not drawn) [M-III, reference compound] | less active than pioglitazone |  |  |  |  |  |  |  |  |  | 
3 | CCc1ccc(CCOc2ccc(CC3SC(=O)NC3=O)cc2)nc1 (stereo not drawn) [pioglitazone] |  | 9.38 µM | 1.69 µM | up to 10 fold | 40%-50% | 13854 ng·h/mL | 14458 ng·h/mL | 14071 ng·h/mL | 4.79 fold | only observed in the pioglitazone group | 2.35 fold
